# The source made the active and inactive calls. No cut-off for these calls is given here.
# Key:
# [1] = tested on: Streptococcus pneumoniae; assay: Bactericidal activity against Cephalosporin resistant Streptococcus pneumoniae ATCC 51916 assessed as reduction in bacterial cell growth incubated for 18 to 20 hrs followed by re-plating on tryptic soy agar plates at 37 degC for 18 hrs by broth microdilution assay; assay type: functional
# [2] = tested on: Staphylococcus aureus; assay: Antibacterial activity against Staphylococcus aureus NRS107 assessed as reduction in bacterial cell growth incubated for 18 to 20 hrs by broth microdilution method; assay type: functional
# [3] = tested on: Streptococcus pneumoniae; assay: Antibacterial activity against Cephalosporin resistant Streptococcus pneumoniae ATCC 51916 assessed as reduction in bacterial cell growth incubated for 18 to 20 hrs by broth microdilution method; assay type: functional
# [4] = tested on: Streptococcus pneumoniae; assay: Bactericidal activity against Methicillin resistant Streptococcus pneumoniae ATCC 700677 assessed as reduction in bacterial cell growth incubated for 18 to 20 hrs followed by re-plating on tryptic soy agar plates at 37 degC for 18 hrs by broth microdilution assay; assay type: functional
# [5] = tested on: Streptococcus pneumoniae; assay: Antibacterial activity against Methicillin resistant Streptococcus pneumoniae ATCC 700677 assessed as reduction in bacterial cell growth incubated for 18 to 20 hrs by broth microdilution method; assay type: functional
# [6] = tested on: J774; assay: Cytotoxicity against mouse J774 assessed as reduction in cell viability at 16 ug/ml incubated for 24 hrs by MTS assay; assay type: cell-based; details: j774, 24 h
# [7] = tested on: Acinetobacter baumannii; assay: Bactericidal activity against Acinetobacter baumannii ATCC 19606 assessed as reduction in bacterial cell growth incubated for 18 to 20 hrs followed by re-plating on tryptic soy agar plates at 37 degC for 18 hrs by broth microdilution assay; assay type: functional
# [8] = tested on: Staphylococcus aureus; assay: Antibacterial activity against methicillin resistant Staphylococcus aureus NRS119 assessed as reduction in bacterial cell growth incubated for 18 to 20 hrs by broth microdilution method; assay type: functional
# [9] = tested on: Enterococcus faecium; assay: Antibacterial activity against vancomycin resistant Enterococcus faecium ATCC 700221 assessed as reduction in bacterial cell growth incubated for 18 to 20 hrs by broth microdilution method; assay type: functional
# [10] = tested on: Staphylococcus aureus; assay: Bactericidal activity against Staphylococcus aureus ATCC 6538 assessed as reduction in bacterial cell growth incubated for 18 to 20 hrs followed by re-plating on tryptic soy agar plates at 37 degC for 18 hrs by broth microdilution assay; assay type: functional
# [11] = tested on: Staphylococcus aureus; assay: Bactericidal activity against Staphylococcus aureus NRS107 assessed as reduction in bacterial cell growth incubated for 18 to 20 hrs followed by re-plating on tryptic soy agar plates at 37 degC for 18 hrs by broth microdilution assay; assay type: functional
# [12] = tested on: Staphylococcus epidermidis; assay: Bactericidal activity against methicillin resistant Staphylococcus epidermidis NRS101 assessed as reduction in bacterial cell growth incubated for 18 to 20 hrs followed by re-plating on tryptic soy agar plates at 37 degC for 18 hrs by broth microdilution assay; assay type: functional
# [13] = tested on: Listeria monocytogenes; assay: Antibacterial activity against Listeria monocytogenes ATCC 19111 assessed as reduction in bacterial cell growth incubated for 18 to 20 hrs by broth microdilution method; assay type: functional
# [14] = tested on: Staphylococcus aureus; assay: Bactericidal activity against methicillin-resistant Staphylococcus aureus USA300 assessed as reduction in bacterial cell growth incubated for 18 to 20 hrs followed by re-plating on tryptic soy agar plates at 37 degC for 18 hrs by broth microdilution assay; assay type: functional
# [15] = tested on: Staphylococcus aureus; assay: Antibacterial activity against vancomycin resistant Staphylococcus aureus VRS11a assessed as reduction in bacterial cell growth incubated for 18 to 20 hrs by broth microdilution method; assay type: functional
# [16] = tested on: Listeria monocytogenes; assay: Bactericidal activity against Listeria monocytogenes ATCC 19111 assessed as reduction in bacterial cell growth incubated for 18 to 20 hrs followed by re-plating on tryptic soy agar plates at 37 degC for 18 hrs by broth microdilution assay; assay type: functional
# [17] = tested on: Klebsiella pneumoniae; assay: Bactericidal activity against Klebsiella pneumoniae BAA-1706 assessed as reduction in bacterial cell growth incubated for 18 to 20 hrs followed by re-plating on tryptic soy agar plates at 37 degC for 18 hrs by broth microdilution assay; assay type: functional
# [18] = tested on: Staphylococcus aureus; assay: Antibacterial activity against methicillin resistant Staphylococcus aureus USA400 assessed as reduction in bacterial cell growth incubated for 18 to 20 hrs by broth microdilution method; assay type: functional
# [19] = tested on: Staphylococcus epidermidis; assay: Antibacterial activity against methicillin resistant Staphylococcus epidermidis NRS101 assessed as reduction in bacterial cell growth incubated for 18 to 20 hrs by broth microdilution method; assay type: functional
# [20] = tested on: Enterococcus faecalis; assay: Bactericidal activity against vancomycin resistant Enterococcus faecalis ATCC 51299 assessed as reduction in bacterial cell growth incubated for 18 to 20 hrs followed by re-plating on tryptic soy agar plates at 37 degC for 18 hrs by broth microdilution assay; assay type: functional
# [21] = tested on: Enterococcus faecalis; assay: Antibacterial activity against vancomycin resistant Enterococcus faecalis ATCC 51299 assessed as reduction in bacterial cell growth incubated for 18 to 20 hrs by broth microdilution method; assay type: functional
# [22] = tested on: Staphylococcus aureus; assay: Antibacterial activity against methicillin-resistant Staphylococcus aureus USA300 assessed as reduction in bacterial cell growth incubated for 18 to 20 hrs by broth microdilution method; assay type: functional
# [23] = tested on: Escherichia coli; assay: Antibacterial activity against Escherichia coli BW25113 assessed as reduction in bacterial cell growth incubated for 18 to 20 hrs by broth microdilution method; assay type: functional
# [24] = tested on: Staphylococcus aureus; assay: Bactericidal activity against vancomycin resistant Staphylococcus aureus VRS11a assessed as reduction in bacterial cell growth incubated for 18 to 20 hrs followed by re-plating on tryptic soy agar plates at 37 degC for 18 hrs by broth microdilution assay; assay type: functional
# [25] = tested on: Staphylococcus aureus; assay: Bactericidal activity against vancomycin resistant Staphylococcus aureus VRS12 assessed as reduction in bacterial cell growth incubated for 18 to 20 hrs followed by re-plating on tryptic soy agar plates at 37 degC for 18 hrs by broth microdilution assay; assay type: functional
# [26] = tested on: Staphylococcus aureus; assay: Antibacterial activity against vancomycin resistant Staphylococcus aureus VRS10 assessed as reduction in bacterial cell growth incubated for 18 to 20 hrs by broth microdilution method; assay type: functional
# [27] = tested on: Staphylococcus aureus; assay: Antibacterial activity against vancomycin resistant Staphylococcus aureus VRS12 assessed as reduction in bacterial cell growth incubated for 18 to 20 hrs by broth microdilution method; assay type: functional
# [28] = tested on: Escherichia coli; assay: BActericidal activity against Escherichia coli BW25113 assessed as reduction in bacterial cell growth incubated for 18 to 20 hrs followed by re-plating on tryptic soy agar plates at 37 degC for 18 hrs by broth microdilution assay; assay type: functional
# [29] = tested on: Staphylococcus aureus; assay: Bactericidal activity against vancomycin resistant Staphylococcus aureus VRS10 assessed as reduction in bacterial cell growth incubated for 18 to 20 hrs followed by re-plating on tryptic soy agar plates at 37 degC for 18 hrs by broth microdilution assay; assay type: functional
# [30] = tested on: Klebsiella pneumoniae; assay: Antibacterial activity against Klebsiella pneumoniae BAA-1706 assessed as reduction in bacterial cell growth incubated for 18 to 20 hrs by broth microdilution method; assay type: functional
# [31] = tested on: Staphylococcus aureus; assay: Bactericidal activity against methicillin resistant Staphylococcus aureus NRS119 assessed as reduction in bacterial cell growth incubated for 18 to 20 hrs followed by re-plating on tryptic soy agar plates at 37 degC for 18 hrs by broth microdilution assay; assay type: functional
# [32] = tested on: Acinetobacter baumannii; assay: Antibacterial activity against Acinetobacter baumannii ATCC 19606 assessed as reduction in bacterial cell growth incubated for 18 to 20 hrs by broth microdilution method; assay type: functional
# [33] = Solubility of compound in PBS after 2 hrs by turbidity based absorbance analysis; assay type: physicochemical
# [34] = tested on: Enterococcus faecium; assay: Bactericidal activity against vancomycin resistant Enterococcus faecium ATCC 700221 assessed as reduction in bacterial cell growth incubated for 18 to 20 hrs followed by re-plating on tryptic soy agar plates at 37 degC for 18 hrs by broth microdilution assay; assay type: functional
# [35] = tested on: Pseudomonas aeruginosa; assay: Antibacterial activity against Pseudomonas aeruginosa ATCC 15442 assessed as reduction in bacterial cell growth incubated for 18 to 20 hrs by broth microdilution method; assay type: functional
# [36] = tested on: J774; assay: Cytotoxicity against mouse J774 cells reduction in cell viability up to 32 ug/ml incubated for 24 hrs by MTS assay; assay type: cell-based; details: j774, 24 h
# [37] = tested on: Pseudomonas aeruginosa; assay: Bactericidal activity against Pseudomonas aeruginosa ATCC 15442 assessed as reduction in bacterial cell growth incubated for 18 to 20 hrs followed by re-plating on tryptic soy agar plates at 37 degC for 18 hrs by broth microdilution assay; assay type: functional
# [38] = tested on: Escherichia coli; assay: Antibacterial activity against Escherichia coli JW55031 harboring deltatolC mutant assessed as reduction in bacterial cell growth incubated for 18 to 20 hrs by broth microdilution method; assay type: functional
# [39] = tested on: Staphylococcus aureus; assay: Antibacterial activity against intracellular methicillin resistant Staphylococcus aureus USA400 infected in mouse J774 cells assessed as log10 reduction of viable bacterial cells incubated for 24 hrs followed by re-plating on tryptic soy agar plates at 37 degC for 18 to 22 hrs by broth microdilution assay; assay type: functional
# [40] = tested on: Staphylococcus aureus; assay: Antibacterial activity against Staphylococcus aureus ATCC 6538 assessed as reduction in bacterial cell growth incubated for 18 to 20 hrs by broth microdilution method; assay type: functional
# [41] = tested on: Escherichia coli; assay: Bactericidal activity against Escherichia coli JW55031 harboring deltatolC mutant assessed as reduction in bacterial cell growth incubated for 18 to 20 hrs followed by re-plating on tryptic soy agar plates at 37 degC for 18 hrs by broth microdilution assay; assay type: functional
# [42] = tested on: Staphylococcus aureus; assay: Resistance index, ratio of MIC for antibacterial activity against methicillin-resistant Staphylococcus aureus USA400 treated repeatedly over 9 passages to MIC for antibacterial activity against methicillin-resistant Staphylococcus aureus USA400 treated for 18 to 20 hrs by broth microdilution assay; assay type: functional
# [43] = tested on: Staphylococcus aureus; assay: Resistance index, ratio of MIC for antibacterial activity against methicillin-resistant Staphylococcus aureus USA400 treated over 1 passage to MIC for antibacterial activity against methicillin-resistant Staphylococcus aureus USA400 treated for 18 to 20 hrs by broth microdilution assay; assay type: functional
# [44] = tested on: Staphylococcus aureus; assay: Antibacterial activity against methicillin-resistant Staphylococcus aureus USA400 assessed as reduction in CFU at 4 x MIC preincubated for 12 hrs in Tryptic soy broth followed by incubation for 18 to 20 hrs on TSA plate by time-kill assay; assay type: functional
smiles,measurement,setting,value
C/C(=N\NC(=N)N)c1sc(-c2ccc(C#Cc3cccc(O)c3)cc2)nc1C,MBC,[1],32 µg/mL
same,MIC,[2],4 µg/mL
same,MIC,[3],8 µg/mL
same,MBC,[4],32 µg/mL
same,MIC,[5],16 µg/mL
same,Activity,[6],Non-Toxic
same,MBC,[7],> 64 µg/mL
same,MIC,[8],2 µg/mL
same,MIC,[9],≤ 0.5 µg/mL
same,MBC,[10],4 µg/mL
same,MBC,[11],4 µg/mL
same,MBC,[12],2 µg/mL
same,MIC,[13],8 µg/mL
same,MBC,[14],4 µg/mL
same,MIC,[15],4 µg/mL
same,MBC,[16],64 µg/mL
same,MBC,[17],> 64 µg/mL
same,MIC,[18],2 µg/mL
same,MIC,[19],2 µg/mL
same,MBC,[20],64 µg/mL
same,MIC,[21],32 µg/mL
same,MIC,[22],4 µg/mL
same,MIC,[23],> 64 µg/mL
same,MBC,[24],4 µg/mL
same,MBC,[25],4 µg/mL
same,MIC,[26],4 µg/mL
same,MIC,[27],4 µg/mL
same,MBC,[28],> 64 µg/mL
same,MBC,[29],4 µg/mL
same,MIC,[30],> 64 µg/mL
same,MBC,[31],4 µg/mL
same,MIC,[32],> 64 µg/mL
same,solubility kinetic at 2 h,[33],55 µM
same,MBC,[34],1 µg/mL
same,MIC,[35],> 64 µg/mL
same,Activity,[36],Non-Toxic
same,MBC,[37],> 64 µg/mL
same,MIC,[38],64 µg/mL
same,Activity,[39],0.92 log10CFU
same,MIC,[40],2 µg/mL
same,MBC,[41],> 64 µg/mL
CO[C@H]1/C=C/O[C@@]2(C)Oc3c(C)c(O)c4c(O)c(c(/C=N/N5CCN(C)CC5)c(O)c4c3C2=O)NC(=O)/C(C)=C\C=C\[C@H](C)[C@H](O)[C@@H](C)[C@@H](O)[C@@H](C)[C@H](OC(C)=O)[C@@H]1C [RIFAMPIN],Ratio,[42],>500000
same,Ratio,[43],29
CN[C@H](CC(C)C)C(=O)N[C@H]1C(=O)N[C@@H](CC(N)=O)C(=O)N[C@H]2C(=O)N[C@H]3C(=O)N[C@H](C(=O)N[C@H](C(=O)O)c4cc(O)cc(O)c4-c4cc3ccc4O)[C@H](O)c3ccc(c(Cl)c3)Oc3cc2cc(c3O[C@@H]2O[C@H](CO)[C@@H](O)[C@H](O)[C@H]2O[C@H]2C[C@](C)(N)[C@H](O)[C@H](C)O2)Oc2ccc(cc2Cl)[C@H]1O [VANCOMYCIN],MBC,[1],1 µg/mL
same,MIC,[3],1 µg/mL
same,MIC,[5],2 µg/mL
same,MIC,[9],> 64 µg/mL
same,MBC,[10],1 µg/mL
same,MBC,[11],2 µg/mL
same,MIC,[13],1 µg/mL
same,MBC,[14],4 µg/mL
same,MIC,[15],> 64 µg/mL
same,MBC,[20],> 64 µg/mL
same,MIC,[21],32 µg/mL
same,MBC,[24],> 64 µg/mL
same,inhibition,[44],Active
same,MBC,[25],64 µg/mL
same,MIC,[26],> 64 µg/mL
same,MIC,[27],64 µg/mL
same,MBC,[29],> 64 µg/mL
same,MBC,[31],1 µg/mL
same,MBC,[34],> 64 µg/mL
same,inhibition,[39],inactive

# From ChEMBL document CHEMBL4393697, “Lipophilic efficient phenylthiazoles with potent undecaprenyl pyrophosphatase inhibitory activity” (Eur J Med Chem, 2019)
